# According to ChEMBL document CHEMBL3044664, “Synthesis of coumarin-based 1,3,4-oxadiazol-2ylthio-N-phenyl/benzothiazolyl acetamides as antimicrobial and antituberculosis agents” (2013):
# What was measured:
# Format in all cases: functional
# Candida albicans = assay: Antifungal activity against Candida albicans MTCC 183 assessed as growth inhibition by agar streak dilution method
# Bacillus cereus = assay: Antibacterial activity against Bacillus cereus MTCC 430 assessed as growth inhibition by agar streak dilution method
# Pseudomonas aeruginosa = assay: Antibacterial activity against Pseudomonas aeruginosa MTCC 741 assessed as growth inhibition by agar streak dilution method
# Salmonella typhi = assay: Antibacterial activity against Salmonella enterica subsp. enterica serovar Typhi MTCC 733 assessed as growth inhibition by agar streak dilution method
# Proteus vulgaris = assay: Antibacterial activity against Proteus vulgaris MTCC 1771 assessed as growth inhibition by agar streak dilution method
# Staphylococcus aureus = assay: Antibacterial activity against Staphylococcus aureus MTCC 96 assessed as growth inhibition by agar streak dilution method
# [1] = test system: Mycobacterium tuberculosis; assay: Antitubercular activity against Mycobacterium tuberculosis H37Rv assessed as growth inhibition at MIC by Lowenstein-Jensen method
# Escherichia coli = assay: Antibacterial activity against Escherichia coli MTCC 739 assessed as growth inhibition by agar streak dilution method
# Klebsiella pneumoniae = assay: Antibacterial activity against Klebsiella pneumoniae MTCC 109 assessed as growth inhibition by agar streak dilution method
# [2] = test system: Mycobacterium tuberculosis; assay: Antitubercular activity against Mycobacterium tuberculosis H37Rv assessed as growth inhibition by BACTEC MGIT method
# Aspergillus fumigatus = assay: Antifungal activity against Aspergillus fumigatus MTCC 343 assessed as growth inhibition by agar streak dilution method
# [3] = test system: Mycobacterium tuberculosis; assay: Antitubercular activity against Mycobacterium tuberculosis H37Rv assessed as growth inhibition by Lowenstein-Jensen method
# Shigella flexneri = assay: Antibacterial activity against Shigella flexneri MTCC 1457 assessed as growth inhibition by agar streak dilution method
# Aspergillus niger = assay: Antifungal activity against Aspergillus niger MTCC 282 assessed as growth inhibition by agar streak dilution method
# Aspergillus clavatus = assay: Antifungal activity against Aspergillus clavatus MTCC 1323 assessed as growth inhibition by agar streak dilution method
Compound,MIC (Candida albicans),MIC (Bacillus cereus),MIC (Pseudomonas aeruginosa),MIC (Salmonella typhi),MIC (Proteus vulgaris),MIC (Staphylococcus aureus),growth inhibition (GI) [1],MIC (Escherichia coli),MIC (Klebsiella pneumoniae),MIC [2],MIC (Aspergillus fumigatus),MIC [3],MIC (Shigella flexneri),MIC (Aspergillus niger),MIC (Aspergillus clavatus)
O=C(CSc1nnc(-c2cc3ccccc3oc2=O)o1)Nc1ccc([N+](=O)[O-])cc1,12.5 µg/mL,100 µg/mL,> 100 µg/mL,100 µg/mL,25 µg/mL,100 µg/mL,94%,50 µg/mL,100 µg/mL,> 6.25 µg/mL,50 µg/mL,500 µg/mL,100 µg/mL,100 µg/mL,100 µg/mL
N#Cc1ccc(NC(=O)CSc2nnc(-c3cc4ccccc4oc3=O)o2)cc1,50 µg/mL,100 µg/mL,100 µg/mL,100 µg/mL,100 µg/mL,6.25 µg/mL,95%,50 µg/mL,50 µg/mL,> 6.25 µg/mL,> 100 µg/mL,200 µg/mL,> 100 µg/mL,> 100 µg/mL,> 100 µg/mL
Cc1ccc(NC(=O)CSc2nnc(-c3cc4ccccc4oc3=O)o2)cc1,> 100 µg/mL,50 µg/mL,> 100 µg/mL,100 µg/mL,> 100 µg/mL,100 µg/mL,94%,> 100 µg/mL,> 100 µg/mL,> 6.25 µg/mL,> 100 µg/mL,500 µg/mL,> 100 µg/mL,100 µg/mL,100 µg/mL
COc1ccc(NC(=O)CSc2nnc(-c3cc4ccccc4oc3=O)o2)cc1,100 µg/mL,100 µg/mL,25 µg/mL,25 µg/mL,100 µg/mL,6.25 µg/mL,97%,50 µg/mL,100 µg/mL,> 6.25 µg/mL,100 µg/mL,50 µg/mL,100 µg/mL,100 µg/mL,50 µg/mL
CCOc1ccc(NC(=O)CSc2nnc(-c3cc4ccccc4oc3=O)o2)cc1,50 µg/mL,100 µg/mL,6.25 µg/mL,50 µg/mL,100 µg/mL,25 µg/mL,98%,50 µg/mL,100 µg/mL,> 6.25 µg/mL,100 µg/mL,25 µg/mL,100 µg/mL,100 µg/mL,100 µg/mL
CC(=O)Nc1ccc(NC(=O)CSc2nnc(-c3cc4ccccc4oc3=O)o2)cc1,100 µg/mL,100 µg/mL,50 µg/mL,> 100 µg/mL,> 100 µg/mL,50 µg/mL,95%,> 100 µg/mL,> 100 µg/mL,> 6.25 µg/mL,> 100 µg/mL,250 µg/mL,> 100 µg/mL,> 100 µg/mL,50 µg/mL
O=C(CSc1nnc(-c2cc3ccccc3oc2=O)o1)Nc1nc2ccccc2s1,> 100 µg/mL,100 µg/mL,50 µg/mL,100 µg/mL,100 µg/mL,100 µg/mL,95%,> 100 µg/mL,> 100 µg/mL,> 6.25 µg/mL,> 100 µg/mL,500 µg/mL,100 µg/mL,> 100 µg/mL,> 100 µg/mL
O=C(CSc1nnc(-c2cc3ccccc3oc2=O)o1)Nc1nc2ccc(Cl)cc2s1,100 µg/mL,6.25 µg/mL,100 µg/mL,50 µg/mL,50 µg/mL,50 µg/mL,96%,50 µg/mL,100 µg/mL,> 6.25 µg/mL,25 µg/mL,62.5 µg/mL,25 µg/mL,12.5 µg/mL,100 µg/mL
O=C(CSc1nnc(-c2cc3ccccc3oc2=O)o1)Nc1nc2ccc(Br)cc2s1,50 µg/mL,3.12 µg/mL,100 µg/mL,100 µg/mL,50 µg/mL,25 µg/mL,99%,50 µg/mL,100 µg/mL,> 6.25 µg/mL,100 µg/mL,12.5 µg/mL,50 µg/mL,25 µg/mL,100 µg/mL
O=C(CSc1nnc(-c2cc3ccccc3oc2=O)o1)Nc1nc2ccc(F)cc2s1,50 µg/mL,12.5 µg/mL,50 µg/mL,50 µg/mL,100 µg/mL,12.5 µg/mL,98%,50 µg/mL,100 µg/mL,> 6.25 µg/mL,25 µg/mL,50 µg/mL,25 µg/mL,12.5 µg/mL,50 µg/mL
